Converted amounts (≈) assume the structure as drawn.
Conditions: buffer; pH 7.4; 200.0 µM

First: COc1ccccc1OCCNC(=O)Nc1cc(F)c(F)cc1Cl
Second: CCOc1ccccc1NC(=O)c1cnccn1
The solubility kinetic of the first is lower: 0.7 µg/mL (≈ 1.96 µM) for the first, over 36.5 µg/mL for the second.

Compared with `COC(=O)c1c(C(C)=O)c(C)n(C)c1C`, `COC(=O)C1=C(C)N(C)C(=O)NC1c1cccc2ccccc12` (stereo unspecified) is lower in solubility kinetic: over 31.4 µg/mL for the first, 30.2 µg/mL (≈ 97.3 µM) for the second.

Compared with `O=C1CCCc2nc3c(cc21)C(O)Oc1ccccc1-3` (stereo unspecified), `O=c1c2c([nH]c3ccccc13)CCC2` is higher in solubility kinetic: 19.4 µg/mL (≈ 72.6 µM) for the first, over 27.8 µg/mL for the second.

`Cc1cc(C)c(NC(=O)c2cccc(NC(=O)c3ccco3)c2)c(C)c1` and `Cc1cccc(C(=O)NCCNC(=O)c2ccco2)c1` are within 1.5-fold of each other in solubility kinetic: 44.3 µg/mL (≈ 127 µM) for the first, 34.5 µg/mL (≈ 127 µM) for the second.

Compared with `COc1ccc(CSc2nc3ccccc3c(=O)[nH]2)cc1F`, `COc1ccc(C)cc1Nc1nc(N)c2ccccc2n1.Cl` is 36-fold higher in solubility kinetic: 1.3 µg/mL (≈ 4.11 µM) for the first, 47.1 µg/mL for the second.

First: O=C(CNC(=O)c1ccc(Br)o1)NCC1COc2ccccc2O1 (stereo unspecified)
Second: NC(=O)c1ccccc1NC(=O)COc1ccc2c(c1)OCO2
The solubility kinetic of the first is higher: over 59.3 µg/mL for the first, 3.1 µg/mL (≈ 9.86 µM) for the second.

Compared with `CC12CCC(C(=O)Nc3nc4ccccc4s3)(OC1=O)C2(C)C` (stereo unspecified), `COc1ccc(CNC(=O)CCn2c(C)csc2=O)cc1` is higher in solubility kinetic: 34.7 µg/mL (≈ 105 µM) for the first, over 46 µg/mL for the second.

`Cc1ccc(CSCC(=O)Nc2ccccc2)cc1` and `O=C(CCc1ccccc1)NCc1ccc(F)cc1` are within 1.5-fold of each other in solubility kinetic: 33.4 µg/mL (≈ 123 µM) for the first, 34.1 µg/mL (≈ 133 µM) for the second.

First: C=CCn1cccc(C(=O)Nc2ccc(F)cc2)c1=O
Second: Cc1nc2ccccc2cc1C(=O)NCc1ccc(F)cc1
The solubility kinetic of the first is higher: over 40.8 µg/mL for the first, 20.6 µg/mL (≈ 70 µM) for the second.

`Cn1c(=O)[nH]c(=O)c2c1[nH]c(=S)n2Cc1ccc(Cl)cc1` and `Cc1[nH]c(=O)c(S(=O)(=O)c2ccccc2)c(C)c1Cl` are within 1.5-fold of each other in solubility kinetic: 42.3 µg/mL (≈ 131 µM) for the first, 44.2 µg/mL (≈ 148 µM) for the second.

First: Cc1nc(N)ncc1-c1ccc2c(c1)OCO2
Second: NC(=O)CN1CCCC1c1ccc2c(c1)OCCO2 (stereo unspecified)
The solubility kinetic of the first is lower: 10.8 µg/mL (≈ 47.1 µM) for the first, over 39.3 µg/mL for the second.

First: COc1ccc(NC2(C#N)CCCCC2)cc1
Second: O=C(NCCN1CCCCC1)Nc1cccc(F)c1
The solubility kinetic of the first is lower: 12.4 µg/mL (≈ 53.8 µM) for the first, over 39.8 µg/mL for the second.

Compared with `Cc1ccc(-n2c(-c3ccccc3)c[nH]c2=S)cc1`, `CC(=O)n1cc(Nc2ccc([N+](=O)[O-])cc2)c2ccccc21` is 7.7-fold higher in solubility kinetic: 0.6 µg/mL (≈ 2.25 µM) for the first, 4.6 µg/mL (≈ 15.6 µM) for the second.

`COc1ccc(NC(=O)CC(C)CC(=O)NCc2ccccc2)c(OC)c1` (stereo unspecified) and `COc1ccc(NC(=O)c2cc(-c3ccncc3)nc3ccccc23)c(OC)c1` are within 1.5-fold of each other in solubility kinetic: 5 µg/mL (≈ 13.5 µM) for the first, 4.2 µg/mL (≈ 10.9 µM) for the second.

`CCSCc1nc2ccccn2c1Br` and `CN1CCCN(Cc2cccc3ccccc23)CC1` are within 1.5-fold of each other in solubility kinetic: 34.6 µg/mL (≈ 128 µM) for the first, 24.7 µg/mL (≈ 97.1 µM) for the second.

First: CCOc1ccccc1CN1CCN(C2CCC2)CC1CCO (stereo unspecified)
Second: N=C(N)N1CCN(Cc2ccccc2)CC1.O=S(=O)(O)O
The solubility kinetic of the first is 6-fold higher: 39.9 µg/mL (≈ 125 µM) for the first, 6.7 µg/mL for the second.

`Cc1ccccc1-n1ccnc1SCC(=O)Nc1cccc(S(=O)(=O)NC2=NCCC2)c1` and `CC1Cc2ccccc2N1CC(=O)Nc1cccc(S(N)(=O)=O)c1` (stereo unspecified) cannot be ordered by solubility kinetic: over 70.4 µg/mL for the first, over 51.8 µg/mL for the second.

First: CCc1ncc(/C=C2\C(=O)Nc3ccccc32)[nH]1
Second: CCC(C(=O)OC)n1cnc2c(oc3ccccc32)c1=O (stereo unspecified)
The solubility kinetic of the first is lower: 6.7 µg/mL (≈ 28 µM) for the first, over 42.9 µg/mL for the second.

Compared with `N/C(COc1cccc(Cl)c1)=N\O`, `Cc1c(Cl)cccc1NC(=O)CCN1CCC(C(N)=O)CC1` is higher in solubility kinetic: 20.1 µg/mL (≈ 100 µM) for the first, over 48.6 µg/mL for the second.

`CC(C)(C)OC(=O)N1CCN(C(=O)c2cccnc2Cl)CC1` and `Cc1cnc(C(=O)N2CCN(S(=O)(=O)c3ccc(F)c(F)c3F)CC2)cn1` cannot be ordered by solubility kinetic: over 48.9 µg/mL for the first, 55.8 µg/mL (≈ 139 µM) for the second.

`O=C1NCCN1CCNS(=O)(=O)c1ccccc1[N+](=O)[O-]` and `COC(=O)c1ccc(S(=O)(=O)N2CCOCC2)o1` cannot be ordered by solubility kinetic: over 47.1 µg/mL for the first, over 41.3 µg/mL for the second.

Going from `COc1cc2c3c(c1)C(C)CC(C)(C)N3C(=O)C2=O` (stereo unspecified) to `COc1cc(N/C(N)=N/c2nc(C)cc(C)n2)cc(OC)c1`, the solubility kinetic rises from 36.2 µg/mL (≈ 140 µM) to over 45.2 µg/mL.

`COC(=O)CN1C(=O)c2cccc3cccc1c23` and `COc1ccc(NC(=S)N2c3ccccc3CC2C)cc1OC` (stereo unspecified) cannot be ordered by solubility kinetic: over 36.2 µg/mL for the first, 42.4 µg/mL (≈ 129 µM) for the second.

Compared with `O=[N+]([O-])c1ccc(N2CCN(CC3CCCCC3)CC2)cc1`, `O=C(c1ccc(F)cc1)c1ccc(N2CCCCC2)cc1` is 1.7-fold higher in solubility kinetic: 2.1 µg/mL (≈ 6.92 µM) for the first, 3.6 µg/mL (≈ 12.7 µM) for the second.

First: C=CCC(C(=O)NC(C)c1ccccc1)C(=O)NC(C)c1ccccc1 (stereo unspecified)
Second: CCC(C)c1ccccc1OCCCN(C)Cc1ccccc1 (stereo unspecified)
The solubility kinetic of the first is 4-fold higher: 16.5 µg/mL (≈ 47.1 µM) for the first, 4.1 µg/mL (≈ 13.2 µM) for the second.

Compared with `CCc1ccc(C(=O)COC(=O)CNC(=O)Cc2ccccc2)cc1`, `CCN(CC)CCn1c(NC(=O)c2ccccc2O)nc2ccccc21` is 2-fold lower in solubility kinetic: 36.6 µg/mL (≈ 108 µM) for the first, 18.5 µg/mL (≈ 52.5 µM) for the second.

Going from `Cc1ccc(C(=O)NCC(=O)N2CCCCCCC2)cc1C` to `Cc1cnc(C(=O)OCC(=O)N2CC(C)CC(C)C2)cn1` (stereo unspecified), the solubility kinetic falls from over 45.4 µg/mL to 43.3 µg/mL (≈ 149 µM).

`Cc1noc(C)c1COC(=O)COc1ccc(C#N)cc1` and `Cc1oncc1C(=O)Nc1cccc(C#N)c1` cannot be ordered by solubility kinetic: over 42.9 µg/mL for the first, over 34.1 µg/mL for the second.

Compared with `Cc1cccc2cc(C#N)c(N3CCC(O)CC3)nc12`, `CN(C)c1ccc(C(O)Cc2nc3ccccc3n2C)cc1` (stereo unspecified) is 2.8-fold lower in solubility kinetic: 34.3 µg/mL (≈ 128 µM) for the first, 12.1 µg/mL (≈ 41 µM) for the second.

First: COc1cccc(C(=O)NC2CC(C)(C)NC(C)(C)C2)c1OC
Second: COCCCNC(=S)Nc1c(C)cc(C)cc1C
The solubility kinetic of the first is higher: over 48.1 µg/mL for the first, 37.2 µg/mL (≈ 140 µM) for the second.

`CC1=NCCN1S(=O)(=O)c1c(C(C)C)cc(C(C)C)cc1C(C)C` gave a solubility kinetic of 16.8 µg/mL (≈ 47.9 µM).

Source: PubChem BioAssay AID1996
